Active and inactive are the calls of the source.
Legend:
Enterobacter cloacae = experiment: Antibacterial activity against Enterobacter cloacae assessed as percent susceptible isolates by CLSI M7-A7 method; type: functional
Streptococcus oralis = experiment: Antibacterial activity against Streptococcus oralis by CLSI M100-S18 method; type: functional
[1] = system: Staphylococcus lugdunensis; experiment: Antibacterial activity against Staphylococcus lugdunensis by CLSI M100-S18 method; type: functional
Citrobacter freundii = experiment: Antibacterial activity against Citrobacter freundii by CLSI M7-A7 method; type: functional
[2] = Antibacterial activity against Lancefield Streptococcus sp. 'group C' by CLSI M100-S18 method; type: functional
Streptococcus pyogenes = experiment: Antibacterial activity against Streptococcus pyogenes by CLSI M100-S18 method; type: functional
Streptococcus pneumoniae [3] = experiment: Antibacterial activity against non-levofloxacin susceptible Streptococcus pneumoniae assessed as percent susceptible isolates by CLSI M100-S18 method; type: functional
Streptococcus anginosus = experiment: Antibacterial activity against Streptococcus anginosus by CLSI M100-S18 method; type: functional
Streptococcus pneumoniae [4] = experiment: Antibacterial activity against levofloxacin-susceptible Streptococcus pneumoniae by CLSI M100-S18 method; type: functional
Morganella morganii = experiment: Antibacterial activity against Morganella morganii by CLSI M7-A7 method; type: functional
Staphylococcus aureus [5] = experiment: Antibacterial activity against ciprofloxacin-susceptible and methicillin-resistant Staphylococcus aureus by CLSI M100-S18 method; type: functional
Staphylococcus warneri = experiment: Antibacterial activity against Staphylococcus warneri by CLSI M100-S18 method; type: functional
Enterococcus faecalis = experiment: Antibacterial activity against vancomycin- resistant Enterococcus faecalis by CLSI M100-S18 method; type: functional
Streptococcus agalactiae = experiment: Antibacterial activity against Streptococcus agalactiae by CLSI M100-S18 method; type: functional
Staphylococcus aureus [6] = experiment: Antibacterial activity against ciprofloxacin-susceptible and methicillin-resistant Staphylococcus aureus assessed as percent susceptible isolates by CLSI M100-S18 method; type: functional
Proteus mirabilis [7] = experiment: Antibacterial activity against Proteus mirabilis by CLSI M7-A7 method; type: functional
[8] = system: Staphylococcus haemolyticus; experiment: Antibacterial activity against Staphylococcus haemolyticus by CLSI M100-S18 method; type: functional
Listeria monocytogenes = experiment: Antibacterial activity against Listeria monocytogenes by CLSI M100-S18 method; type: functional
[9] = system: Staphylococcus epidermidis; experiment: Antibacterial activity against ciprofloxacin-susceptible and methicillin-resistant Staphylococcus epidermidis by CLSI M100-S18 method; type: functional
Streptococcus sanguinis = experiment: Antibacterial activity against Streptococcus sanguinis by CLSI M100-S18 method; type: functional
Moraxella catarrhalis = experiment: Antibacterial activity against Moraxella catarrhalis by CLSI M7-A7 method; type: functional
Haemophilus influenzae [10] = experiment: Antibacterial activity against ciprofloxacin-susceptible Haemophilus influenzae assessed as percent susceptible isolates by CLSI M7-A7 method; type: functional
Streptococcus sp. = experiment: Antibacterial activity against Lancefield Streptococcus sp. group F by CLSI M100-S18 method; type: functional
[11] = system: Streptococcus constellatus; experiment: Antibacterial activity against Streptococcus constellatus by CLSI M100-S18 method; type: functional
Streptococcus salivarius = experiment: Antibacterial activity against Streptococcus salivarius by CLSI M100-S18 method; type: functional
Legionella pneumophila = experiment: Antibacterial activity against Legionella pneumophila by CLSI M7-A7 method; type: functional
Klebsiella oxytoca = experiment: Antibacterial activity against Klebsiella oxytoca by CLSI M7-A7 method; type: functional
Acinetobacter baumannii = experiment: Antibacterial activity against Acinetobacter baumannii by CLSI M7-A7 method; type: functional
[12] = system: Acinetobacter calcoaceticus; experiment: Antibacterial activity against Acinetobacter calcoaceticus by CLSI M7-A7 method; type: functional
[13] = system: Staphylococcus saprophyticus; experiment: Antibacterial activity against Staphylococcus saprophyticus assessed as percent susceptible isolates by CLSI M100-S18 method; type: functional
Proteus mirabilis [14] = experiment: Antibacterial activity against Proteus mirabilis assessed as percent susceptible isolates by CLSI M7-A7 method; type: functional
Staphylococcus aureus [15] = experiment: Antibacterial activity against non-ciprofloxacin-susceptible and methicillin-susceptible Staphylococcus aureus by CLSI M100-S18 method; type: functional
Klebsiella aerogenes [16] = experiment: Antibacterial activity against Enterobacter aerogenes assessed as percent susceptible isolates by CLSI M7-A7 method; type: functional
[17] = system: Staphylococcus epidermidis; experiment: Antibacterial activity against non-ciprofloxacin-susceptible and methicillin-susceptible Staphylococcus epidermidis assessed as percent susceptible isolates by CLSI M100-S18 method; type: functional
Serratia marcescens [18] = experiment: Antibacterial activity against levofloxacin susceptible Serratia marcescens assessed as percent susceptible isolates by CLSI M7-A7 method; type: functional
Enterococcus faecium = experiment: Antibacterial activity against vancomycin- resistant Enterococcus faecium by CLSI M100-S18 method; type: functional
Klebsiella aerogenes [19] = experiment: Antibacterial activity against Enterobacter aerogenes by CLSI M7-A7 method; type: functional
Staphylococcus hominis = experiment: Antibacterial activity against Staphylococcus hominis by CLSI M100-S18 method; type: functional
[20] = system: Staphylococcus epidermidis
Klebsiella pneumoniae = experiment: Antibacterial activity against Klebsiella pneumoniae assessed as percent susceptible isolates by CLSI M7-A7 method; type: functional
[21] = Antibacterial activity against Lancefield Streptococcus sp. 'group G' by CLSI M100-S18 method; type: functional
Haemophilus influenzae [22] = experiment: Antibacterial activity against non-ciprofloxacin-susceptible Haemophilus influenzae assessed as percent susceptible isolates by CLSI M7-A7 method; type: functional
[23] = system: Staphylococcus lugdunensis; experiment: Antibacterial activity against Staphylococcus lugdunensis assessed as percent susceptible isolates by CLSI M100-S18 method; type: functional
Haemophilus influenzae [24] = experiment: Antibacterial activity against non-ciprofloxacin-susceptible Haemophilus influenzae by CLSI M7-A7 method; type: functional
Serratia marcescens [25] = experiment: Antibacterial activity against Serratia marcescens by CLSI M7-A7 method; type: functional
Streptococcus equinus = experiment: Antibacterial activity against Streptococcus bovis by CLSI M100-S18 method; type: functional

N[C@@H]1CCCCN(c2c(F)cc3c(=O)c(C(=O)O)cn(C4CC4)c3c2Cl)C1 [BESIFLOXACIN]
2 µg/mL: MIC90 (Enterococcus faecalis) | MIC50 (Enterococcus faecium) | MIC50 (Haemophilus influenzae [24]) | MIC90 (Haemophilus influenzae [24])
32 µg/mL: MIC90 (Acinetobacter baumannii)
0.06 µg/mL: MIC50 (Streptococcus oralis) | MIC50 [1] | MIC90 [2] | MIC90 (Streptococcus pyogenes) | MIC50 (Streptococcus anginosus) | MIC90 (Streptococcus pneumoniae [4]) | MIC50 (Staphylococcus warneri) | MIC50 (Streptococcus agalactiae) | MIC90 (Streptococcus agalactiae) | MIC50 (Streptococcus sanguinis) | MIC90 (Streptococcus sp.) | MIC50 [11] | MIC50 (Streptococcus salivarius) | MIC90 [21] | MIC50 (Streptococcus equinus)
0.25 µg/mL: MIC50 (Citrobacter freundii) | MIC50 (Proteus mirabilis [7]) | MIC50 (Klebsiella aerogenes [19]) | MIC50 (Staphylococcus hominis) | MIC50 (Serratia marcescens [25])
8 µg/mL: MIC90 (Enterococcus faecium) | MIC90 (Klebsiella aerogenes [19])
0.5 µg/mL: MIC90 [1] | MIC50 [8] | MIC50 [12] | MIC50 (Staphylococcus aureus [15])
0.015 µg/mL: MIC (Staphylococcus aureus [5]) | MIC50 (Staphylococcus aureus [5])
0.12 µg/mL: MIC90 (Streptococcus oralis) | MIC90 (Streptococcus anginosus) | MIC50 (Morganella morganii) | MIC90 (Staphylococcus aureus [5]) | MIC50 (Enterococcus faecalis) | MIC50 (Listeria monocytogenes) | MIC90 (Listeria monocytogenes) | MIC90 (Streptococcus sanguinis) | MIC90 [11] | MIC90 (Streptococcus salivarius) | MIC50 (Klebsiella oxytoca) | MIC90 (Streptococcus equinus)
0.03 µg/mL: MIC50 [2] | MIC (Streptococcus pyogenes) | MIC50 (Streptococcus pyogenes) | MIC50 (Streptococcus pneumoniae [4]) | MIC50 [9] | MIC50 (Moraxella catarrhalis) | MIC90 (Moraxella catarrhalis) | MIC50 (Streptococcus sp.) | MIC50 (Legionella pneumophila) | MIC90 (Legionella pneumophila) | MIC50 [21]
inactive: Activity (Enterobacter cloacae) | Activity (Streptococcus pneumoniae [3]) | Activity (Staphylococcus aureus [6]) | Activity (Haemophilus influenzae [10]) | Activity [13] | Activity (Proteus mirabilis [14]) | Activity (Klebsiella aerogenes [16]) | Activity [17] | Activity (Serratia marcescens [18]) | MIC90 [20] | Activity (Klebsiella pneumoniae) | Activity (Haemophilus influenzae [22]) | Activity [23]
1 µg/mL: MIC90 (Staphylococcus warneri) | MIC90 [8] | MIC90 (Klebsiella oxytoca) | MIC90 (Staphylococcus hominis) | MIC90 (Serratia marcescens [25])
16 µg/mL: MIC90 (Proteus mirabilis [7]) | MIC50 (Acinetobacter baumannii) | MIC90 [12]
4 µg/mL: MIC90 (Citrobacter freundii) | MIC90 (Morganella morganii) | MIC90 (Staphylococcus aureus [15])
